Like-named read-outs stand apart in the source and are kept apart here.
Key:
[1] = Acute food intake inhibition in Long Evans rats after bolus SC dosing (BioDAQ); assay type: in vivo, rat; conditions: 30 mcg SC bolus
[2] = Body weight changes in LE rats after bolus SC dosing; assay type: in vivo, rat; conditions: 30 mcg/kg SC bolus
[3] = Weight-loss efficacy in LE DIO rats after bolus SC dosing; assay type: in vivo, rat; conditions: male LE DIO rats, from baseline and vehicle control (ΔΔ %)
[4] = Stability in DMSO or DI water at 37° C. (purity by LC/MS and HPLC); assay type: physicochemical
[5] = Solubility in saline or DI water at room temperature (visual inspection); assay type: physicochemical; conditions: room temperature, as TFA salt unless indicated otherwise
[6] = cited from earlier work
[7] = Comparative in vivo weight loss potency, A120 vs semaglutide, DIO rats (28 days); set-up: species or system rat
HbA1c = assay: Comparative in vivo HbA1c lowering potency, A120 vs semaglutide (28 days); set-up: species or system rat
[8] = Body composition (quantitative magnetic resonance) in male LE DIO rats; assay type: in vivo, rat; conditions: day 26
[9] = Body composition in male ZDF rats; assay type: in vivo, rat; conditions: day 25
[10] = solute Saline, TFA salt unless indicated otherwise
[11] = ΔΔ % weight decrease in DIO rat at day 27
[12] = ΔΔ % change in HbA1c in ZDF rat at day 27

Compound | % Food Intake Inhibition from Vehicle, 0-24 hr [1] [%] | % Food Intake Inhibition from Vehicle, 25-48 hr [1] [%] | % Food Intake Inhibition from Vehicle, 49-72 hr [1] [%] | % Food Intake Inhibition from Vehicle, 73-96 hr [1] [%] | % Weight change from Vehicle, 1 d [2] [%] | % Weight change from Vehicle, 2 d [2] [%] | % Weight change from Vehicle, 3 d [2] [%] | % Weight change from Vehicle, 4 d [2] [%] | DIO Weight Loss (30 mcg/kg SC bolus) % Weight change from Vehicle 2 d [3] [%] | DIO Weight Loss (30 mcg/kg SC bolus) % Weight change from Vehicle 3 d [3] [%] | DIO Weight Loss (30 mcg/kg SC bolus) % Weight change from Vehicle 4 d [3] [%] | further results
CC[C@H](C)[C@@H]1NC(=O)[C@H](Cc2ccccc2)NC(=O)[C@H](CCCCN)NC(=O)[C@@H](NC(=O)[C@@H](NC(=O)[C@H](C)NC(=O)[C@H](CCC(=O)O)NC(=O)[C@H](CCCCNC(=O)CC[C@H](NC(=O)CC[C@H](NC(=O)COCCOCCNC(=O)CCCCCCCCCCCCCCCCCCC(=O)O)C(=O)O)C(=O)O)NC(=O)[C@H](CCC(=O)O)NC(=O)[C@H](Cc2ccc(O)cc2)NC(=O)[C@H](CCC(N)=O)NC(=O)[C@H](CCCCN)NC(=O)[C@H](CO)NC(=O)[C@@H](NC(=O)[C@H](CC(=O)O)NC(=O)[C@H](CO)NC(=O)[C@@H](NC(=O)[C@H](Cc2ccccc2)NC(=O)[C@@H](NC(=O)CNC(=O)[C@H](CCC(=O)O)NC(=O)C(C)(C)NC(=O)[C@@H](N)Cc2c[nH]cn2)[C@@H](C)O)[C@@H](C)O)C(C)C)C(C)C)CCCCNC(=O)CC[C@@H](C(=O)N[C@@H](Cc2c[nH]c3ccccc23)C(=O)N[C@@H](CC(C)C)C(=O)N[C@@H](CCCCN)C(=O)N[C@@H](CC(N)=O)C(=O)NCC(=O)NCC(=O)N2CCC[C@H]2C(=O)N[C@@H](CO)C(=O)N[C@@H](CO)C(=O)NCC(=O)N[C@@H](C)C(=O)N2CCC[C@H]2C(=O)N2CCC[C@H]2C(=O)N2CCC[C@H]2C(=O)N[C@@H](CO)C(N)=O)NC1=O [Compound A135] | −52.6 | −62.2 | −29.4 | −8.0 | −4.3 | −7.4 | −6.4 | −4.2 | −3.7 | −4.8 | −4.3 | 
CC[C@H](C)[C@@H]1NC(=O)[C@H](Cc2ccccc2)NC(=O)[C@H](CCCCN)NC(=O)[C@@H](NC(=O)[C@H](C)NC(=O)[C@H](C)NC(=O)[C@H](CCC(=O)O)NC(=O)[C@H](CCCCNC(=O)CC[C@H](NC(=O)CC[C@H](NC(=O)COCCOCCNC(=O)CCCCCCCCCCCCCCCCCCC(=O)O)C(=O)O)C(=O)O)NC(=O)[C@H](CCC(=O)O)NC(=O)[C@H](Cc2ccc(O)cc2)NC(=O)[C@H](CCC(N)=O)NC(=O)[C@H](CCCCN)NC(=O)[C@H](CO)NC(=O)[C@@H](NC(=O)[C@H](CC(=O)O)NC(=O)[C@H](CO)NC(=O)[C@@H](NC(=O)[C@H](Cc2ccccc2)NC(=O)[C@@H](NC(=O)CNC(=O)[C@H](CCC(=O)O)NC(=O)C(C)(C)NC(=O)[C@@H](N)Cc2c[nH]cn2)[C@@H](C)O)[C@@H](C)O)C(C)C)CCCCNC(=O)CC[C@@H](C(=O)N[C@@H](Cc2c[nH]c3ccccc23)C(=O)N[C@@H](CC(C)C)C(=O)N[C@@H](CCCCN)C(=O)N[C@@H](CC(N)=O)C(=O)NCC(=O)NCC(=O)N2CCC[C@H]2C(=O)N[C@@H](CO)C(=O)N[C@@H](CO)C(=O)NCC(=O)N[C@@H](C)C(=O)N2CCC[C@H]2C(=O)N2CCC[C@H]2C(=O)N2CCC[C@H]2C(=O)N[C@@H](CO)C(N)=O)NC1=O [Compound A137] | −67.0 | −69.0 | −25.7 | −14.7 | −4.7 | −6.6 | −6.0 | −4.8 | −3.0 | −2.9 | −2.7 | 
CC[C@H](C)[C@H](NC(=O)[C@H](Cc1ccccc1)NC(=O)[C@H](CC(C)C)NC(=O)[C@H](CCCNC(=N)N)NC(=O)[C@@H](NC(=O)[C@H](C)NC(=O)[C@H](CCC(=O)O)NC(=O)[C@H](CCCCNC(=O)CC[C@H](NC(=O)COCCOCCNC(=O)CCCCCCCCCCCCCCCCCCC(=O)O)C(=O)O)NC(=O)[C@H](CCC(=O)O)NC(=O)[C@H](Cc1ccc(O)cc1)NC(=O)[C@H](CCC(N)=O)NC(=O)[C@H](CCCCN)NC(=O)[C@H](CO)NC(=O)[C@H](CC(C)C)NC(=O)[C@H](CC(=O)O)NC(=O)[C@H](CCC(=O)O)NC(=O)[C@@H](NC(=O)[C@H](Cc1ccccc1)NC(=O)[C@@H](NC(=O)CNC(=O)[C@H](CCC(=O)O)NC(=O)C(C)(C)NC(=O)[C@@H](N)Cc1c[nH]cn1)[C@@H](C)O)[C@@H](C)O)C(C)C)C(=O)N[C@@H](CO)C(=O)N[C@@H](Cc1c[nH]c2ccccc12)C(=O)N[C@@H](CC(C)C)C(=O)N[C@@H](CCCCN)C(=O)N[C@@H](CC(N)=O)C(=O)NCC(=O)NCC(=O)N1CCC[C@H]1C(=O)N[C@@H](CO)C(=O)N[C@@H](CO)C(=O)NCC(=O)N[C@@H](C)C(=O)N1CCC[C@H]1C(=O)N1CCC[C@H]1C(=O)N1CCC[C@H]1C(=O)N[C@@H](CO)C(N)=O [Compound A162] |  |  |  |  |  |  |  |  |  |  |  | Stability @ 37° C. (% purity) Day 14 ([4]; solute DI H2O, 37° C., TFA salt unless indicated otherwise): 96.6%; Stability @ RT (% purity) Day 0 ([4]; solute DI H2O, TFA salt unless indicated otherwise, 1 mg/ml): 95.8%; Stability @ RT (% purity) Day 14 ([4]; solute DI H2O, TFA salt unless indicated otherwise): 94.7%; Stability @ RT (% purity) Day 28 ([4]; solute DI H2O, Day 28, TFA salt unless indicated otherwise): 94.5%; Stability @ 37° C. (% purity) Day 14 ([4]; solute Saline, 37° C., TFA salt unless indicated otherwise): 96.7%; Appearance of stability sample (cloudy / particulates) ([4]; solute Saline, 37° C., Day 28): (c); Stability @ 37° C. (% purity) Day 28 ([4]; solute Saline, 37° C., Day 28, TFA salt unless indicated otherwise): 85.5%; Stability @ RT (% purity) Day 0 [4, 10]: 97.9%; Stability @ RT (% purity) Day 14 [4, 10]: 93.7%; Stability @ RT (% purity) Day 28 ([4]; solute Saline, Day 28, TFA salt unless indicated otherwise): 94.9%; solubility ([5]; DI water, read-out: Solubility (mg/mL) in DI water): > 101 mg/mL; solubility ([5]; saline, read-out: Solubility (mg/mL) in saline): > 101 mg/mL
human amylin: 37-residue polypeptide hormone co-secreted with insulin from pancreatic β-cells |  |  |  |  |  |  |  |  |  |  |  | half-life in serum [6]: about 13 minutes
semaglutide |  |  |  |  |  |  |  |  |  |  |  | % Weight loss EC50 [7, 11]: 3.9 ng/mL; % Weight loss ED50 [7, 11]: 23 µg/kg/day; % Weight loss at 300 mcg/kg/day dose ([7]; ΔΔ % weight decrease in DIO rat at day 27, 300 mcg/kg/day): 24%; % Change HbA1c EC50 (HbA1c; [12]): 6 ng/mL; % Change HbA1c ED50 (HbA1c; [12]): 36 µg/kg/day; % Change HbA1c at 300 mcg/kg/day dose (HbA1c; ΔΔ % change in HbA1c in ZDF rat at day 27, 300 mcg/kg/day): 4.8%; changes in body composition [8]: primarily due to fat mass loss; changes in body composition [9]: primarily due to fat mass loss

— US12084485B2 (Intarcia Therapeutics, Inc., priority 2020, dated 2024)
